Measurements taken from the CombiSolv-Exp solvation set (Vermeire and Green 2021).

Test: solvent given as SMILES

CCCC
Conditions | solvation free energy, 298 K [kcal/mol]
in C1CCC2CCCCC2C1 | -2.25
in C1COCCO1 | -2.13
in CC1COC(=O)O1 | -1.19
in CC#N | -1.49
in CC(=O)N(C)C | -1.75
in CC(C)(C)O | -2.07
in CC(C)=O | -2.13
in CC(C)CCO | -2.02
in CC(C)CO | -2.03
in CC(C)O | -2.03
in CC(CC(C)(C)C)CC(C)(C)CC(C)(C)C | -2.97
in CCC(C)(C)O | -2.16
in CCC(C)=O | -2.31
in CCC(C)CO | -2.03
in CCC(O)CC | -2.07
in CCCC(C)O | -2.03
in CCCCC | -2.61
in CCCCCC | -2.55
in CCCCCCC | -2.54
in CCCCCCCC | -2.49
in CCCCCCCCC | -2.43
in CCCCCCCCCC | -2.43
in CCCCCCCCCCCC | -2.32
in CCCCCCCCCCCCC | -2.31
in CCCCCCCCCCCCCC | -2.23
in CCCCCCCCCCCCCCC | -2.24
in CCCCCCCCCCCCCCCC | -2.21
in CCCCCCCCO | -2.09
in CCCCCCCO | -1.96
in CCCCCO | -2.03
in CCCCO | -1.87
in CCCCOCCCC | -2.44
in CCCO | -1.98
in CCO | -1.91
in CN1CCCC1=O | -1.56
in CN(C)C=O | -1.47
in CN(C)P(=O)(N(C)C)N(C)C | -1.85
in CO | -1.73
in COC(C)=O | -1.95
in COCCOCCO | -1.36
in COCCOCCOC | -1.89
in COCCOCCOCCOC | -1.64
in COCCOCCOCCOCCOC | -1.62
in CS(C)=O | -0.99
in Cc1ccc(C)cc1 | -2.33
in Cc1cccc(C)c1 | -2.34
in Cc1ccccc1C | -2.31
in ClC(Cl)(Cl)Cl | -2.67
in Clc1ccccc1 | -2.32
in Ic1ccccc1 | -2.05
in N#Cc1ccccc1 | -1.93
in NC=O | -0.12
in Nc1ccccc1 | -1.4
in O | 2.07
in O=CN1CCOCC1 | -0.91
in OC1CCCCC1 | -1.8
in OCCCOCCCO | -1.24
in OCCO | -0.29
in OCc1ccccc1 | -1.51
in c1ccccc1 | -2.39

CCc1cnccn1
Conditions | solvation free energy, 298 K [kcal/mol]
in O | -5.45

CCCC(C)C(C)O (stereo unspecified)
Conditions | solvation free energy, 298 K [kcal/mol]
in CCCCCCCC | -5.31
in CCCCCCCCCC | -5.27

O=C(c1cc([N+](=O)[O-])cc([N+](=O)[O-])c1)N(O)c1ccccc1
Conditions | solvation free energy, 298 K [kcal/mol]
in O | -15.6

CCCCCCCCCCCCCN
Conditions | solvation free energy, 298 K [kcal/mol]
in O | -3.2

BrC(Br)Br
Conditions | solvation free energy, 298 K [kcal/mol]
in O | -1.96

CC1(C)C2=CCCC(C)(C)C23CCC1C3 (stereo unspecified)
Conditions | solvation free energy, 298 K [kcal/mol]
in O | 0.71

OCCCl
Conditions | solvation free energy, 298 K [kcal/mol]
in Brc1ccccc1 | -4.8
in CCCCCCCCCCO | -5.73
in CCCCCCCCO | -5.87
in Cc1ccc(C)cc1 | -4.77
in Cc1cccc(C)c1 | -4.69
in Cc1ccccc1C | -4.74
in Clc1ccccc1 | -4.62
in O | -6.28

CC(C)CCl
Conditions | solvation free energy, 298 K [kcal/mol]
in C1CCOC1 | -4.39
in C1CCOCC1 | -4.28
in C=CCCCCCCCCCCCCCC | -3.51
in CCCCCC | -3.87
in COC(C)(C)C | -4.13
in O | 0.03

CCCC(O)CC (stereo unspecified)
Conditions | solvation free energy, 298 K [kcal/mol]
in O | -4.06

O=c1[nH]cc(I)c(=O)[nH]1
Conditions | solvation free energy, 298 K [kcal/mol]
in O | -18.7

CCCC[N+](=O)[O-]
Conditions | solvation free energy, 298 K [kcal/mol]
in CCCCCC | -4.64
in O | -3.1

CCCCC=O
Conditions | solvation free energy, 298 K [kcal/mol]
in CC(C)CC(C)(C)C | -4.24
in CCCCCCCC | -3.97
in CN1CCCC1=O | -4.67
in CO | -4.87
in NC=O | -3.77
in O | -3.01
in O=CN1CCOCC1 | -4.49
in [2H]O[2H] | -2.89

c1ccc2c(c1)Cc1ccccc1-2
Conditions | solvation free energy, 298 K [kcal/mol]
in CC(=O)N(C)C | -10.4
in CC(C)(C)O | -8.84
in CC(C)CC(C)(C)C | -9.32
in CC(C)CCO | -8.95
in CC(C)CO | -9.21
in CC(C)O | -8.92
in CCC(C)O | -8.95
in CCCC(C)O | -9.03
in CCCCC(CC)CO | -9.14
in CCCCCC | -9.29
in CCCCCCC | -9.3
in CCCCCCCC | -9.29
in CCCCCCCCC=CCCCCCCCC(=O)OCC(COC(=O)CCCCCCCC=CCCCCCCCC)OC(=O)CCCCCCCC=CCCCCCCCC | -9.74
in CCCCCCCCCC | -9.32
in CCCCCCCCCCO | -9.33
in CCCCCCCCO | -9.32
in CCCCCCCO | -9.33
in CCCCCCO | -9.26
in CCCCCO | -9.24
in CCCCO | -9.15
in CCCO | -9.09
in CCO | -8.93
in CN1CCCC1=O | -10.5
in CO | -8.85
in O | -3.34

O=C(O)c1ccccc1
Conditions | solvation free energy, 298 K [kcal/mol]
in C1CCOC1 | -9.93
in C1COCCO1 | -9.81
in C=CCCCCCCC=C | -6.26
in C=CCCCCCCCCCCCCCC | -5.84
in CC(=O)N(C)C | -10.1
in CC(C)=O | -9.63
in CC(C)CCO | -9.41
in CC(C)CO | -9.4
in CC(C)O | -9.63
in CCC(C)O | -9.41
in CCCC(C)O | -9.52
in CCCCCCCCCCO | -9.21
in CCCCCCCO | -9.27
in CCCCCCO | -9.39
in CCCCCO | -9.44
in CCCCO | -9.58
in CCCCOC(C)=O | -9.29
in CCCCOCCCC | -8.8
in CCCO | -9.6
in CCO | -9.71
in CCOC(C)=O | -9.43
in CCOCC | -9.45
in CN(C)C=O | -10.1
in CNC=O | -10
in CO | -9.81
in O | -6.96

CCCCCCC=O
Conditions | solvation free energy, 298 K [kcal/mol]
in O | -2.67

Cc1ccccc1N
Conditions | solvation free energy, 298 K [kcal/mol]
in CC(C)CC(C)(C)C | -6.37
in CCCCCC | -6.13
in CCCCCCC | -6.22
in CCCCCCCC | -6.34
in CCCCCCCCCC | -6.64
in Cc1cccc(C)c1 | -7.32
in Cc1ccccc1C | -7.39
in O | -5.55

FC(F)=C(F)C(F)(F)F
Conditions | solvation free energy, 298 K [kcal/mol]
in CCCCCCCC(=O)OCC(COC(=O)CCCCCCC)OC(=O)CCCCCCC | -0.41
in CCCCCCCCO | -0.32
in COCCO | 3.88

Cc1ccc(O)c(O)c1
Conditions | solvation free energy, 298 K [kcal/mol]
in CCCCCC | -6.99
in CCCCCCC | -7.05
in CCCCCCCC | -7.02
in Cc1ccc(C)cc1 | -9.05
in Cc1cccc(C)c1 | -9.05
in Cc1ccccc1C | -9.05

O=C(c1ccccc1)C(O)c1ccccc1 (stereo unspecified)
Conditions | solvation free energy, 298 K [kcal/mol]
in C1COCCO1 | -16.5
in CC(C)(C)O | -14.6
in CC(C)CCO | -14.6
in CC(C)CO | -14.6
in CC(C)O | -14.6
in CCC(C)O | -14.6
in CCCC(C)O | -14.5
in CCCCCCCCCCO | -14.5
in CCCCCCCCO | -14.6
in CCCCCCCO | -14.6
in CCCCCCO | -14.6
in CCCCCO | -14.7
in CCCCO | -14.7
in CCCCOC(C)=O | -15.4
in CCCCOCCCC | -14.2
in CCCO | -14.9
in CCO | -15
in CCOC(C)=O | -15.7
in CCc1ccccc1 | -14.9
in COC(C)(C)C | -14.8
in COC(C)=O | -15.9
in Cc1ccc(C)cc1 | -15
in Cc1ccccc1 | -15.2
in Cc1ccccc1C | -15.1
in ClC(Cl)(Cl)Cl | -14.4
in ClC(Cl)Cl | -16.2
in ClCCCl | -16.1
in O | -11.9
in c1ccccc1 | -15.6

CCCCCCCCCCCCCCCCCCCCCCCCCCCC
Conditions | solvation free energy, 298 K [kcal/mol]
in CC(=O)N(C)C | -18.9
in CC(C)(C)O | -16.9
in CCC(C)=O | -17.1
in CCCCCO | -17
in CCCCO | -16.7
in CCCCOC(C)=O | -17.9
in CCCO | -16.4
in CN(C)C=O | -19
in Cc1ccc(C)cc1 | -19.3
in Cc1cccc(C)c1 | -19.2
in ClCCl | -18.6
in O | 5.92

CCc1ccc(O)cc1
Conditions | solvation free energy, 298 K [kcal/mol]
in C=CCCCCCCC=C | -7.11
in CCCCCC | -6.53
in CCCCCCC | -6.47
in CCCCCCCC | -6.44
in Cc1ccc(C)cc1 | -7.85
in Cc1cccc(C)c1 | -7.83
in Cc1ccccc1C | -7.87
in O | -6.14

C=C1CCC2CC3C(C)CCC13C2(C)C (stereo unspecified)
Conditions | solvation free energy, 298 K [kcal/mol]
in O | 0.83

CC(C)=CCCC(C)CCOC=O (stereo unspecified)
Conditions | solvation free energy, 298 K [kcal/mol]
in O | -3.08

CCC(O)C(C)(C)C (stereo unspecified)
Conditions | solvation free energy, 298 K [kcal/mol]
in CCCCCCCC | -4.93
in CCCCCCCCCC | -4.85

CN(C)CC=C(c1ccc(Br)cc1)c1cccnc1
Conditions | solvation free energy, 298 K [kcal/mol]
in O | -11.9

O=C(O)Cc1cccc(Cl)c1
Conditions | solvation free energy, 298 K [kcal/mol]
in O | -8.39

Clc1ccc2c(c1)Oc1ccc(Cl)cc1O2
Conditions | solvation free energy, 298 K [kcal/mol]
in O | -3.67

CCN
Conditions | solvation free energy, 298 K [kcal/mol]
in CCCCCC | -2.29
in CCCCCCC | -2.09
in CCCCCCCC | -2.05
in CCCCCCCCCC | -1.93
in CCCCCCCCCCCCCCCC | -2.22
in O | -4.5

CCNc1nc(Cl)nc(NC(C)(C)C)n1
Conditions | solvation free energy, 298 K [kcal/mol]
in O | -8.66

CC(=O)C1CCCCC1
Conditions | solvation free energy, 298 K [kcal/mol]
in O | -3.9
